The target of the first assay is T1, Dihydroorotate dehydrogenase (quinone), mitochondrial (Homo sapiens, UniProt Q02127). Nature of the assay: Inhibition of human DHODH assessed as decrease in DCIP using dihydroorotate as substrate measured every 30 seconds for 6 mins.
T1 sequence (Q02127 whole entry): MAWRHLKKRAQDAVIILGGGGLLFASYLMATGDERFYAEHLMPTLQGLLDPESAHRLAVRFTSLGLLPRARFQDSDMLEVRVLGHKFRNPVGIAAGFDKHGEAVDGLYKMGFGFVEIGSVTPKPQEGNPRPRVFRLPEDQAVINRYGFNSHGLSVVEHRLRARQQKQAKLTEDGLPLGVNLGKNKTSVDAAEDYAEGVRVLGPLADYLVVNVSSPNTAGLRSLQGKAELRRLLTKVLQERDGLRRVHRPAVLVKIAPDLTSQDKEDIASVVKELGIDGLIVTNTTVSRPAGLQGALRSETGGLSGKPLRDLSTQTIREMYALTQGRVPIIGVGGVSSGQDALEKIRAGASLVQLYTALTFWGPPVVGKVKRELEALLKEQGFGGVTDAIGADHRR
One may read the IC50 as the concentration that inhibits the measured activity by half. Consider `COc1ccc(C(F)(F)F)cc1NC(=O)c1cccc2nc(-c3cc(Br)nn3-c3ncccc3Cl)[nH]c12`, for which the half-inhibitory concentration (IC50) came out at 4.85 µM.
For `Cc1ccccc1NC(=O)c1cccc2nc(-c3cc(Br)nn3-c3ncccc3Cl)[nH]c12`, the IC50 was 0.676 µM.
For `COc1ccccc1NC(=O)c1cccc2nc(-c3cc(Br)nn3-c3ncccc3Cl)[nH]c12`, the IC50 worked out at 0.178 µM.

Another assay addresses T1, Dihydroorotate dehydrogenase (quinone), mitochondrial. Nature of the assay: Inhibition of human DHODH assessed as decrease in DCIP at 10 uM using dihydroorotate as substrate measured every 30 seconds for 6 mins.
As usually defined, the inhibition is the relative decrease from the control value, in per cent. For the compound `CCCNC(=O)c1cccc2oc(-c3cc(Br)nn3-c3ncccc3Cl)nc12`, the inhibition was 30.1%.
Still for that read-out and setting: to `COc1ccc(C(F)(F)F)cc1NC(=O)c1cccc2nc(-c3cc(Br)nn3-c3ncccc3Cl)[nH]c12` belongs 55.2%; to `O=C(Nc1ccccc1F)c1cccc2nc(-c3cc(Br)nn3-c3ncccc3Cl)[nH]c12`, 38.8%.
In the case of `COc1cccc(F)c1NC(=O)c1cccc2nc(-c3cc(Br)nn3-c3ncccc3Cl)[nH]c12`, the inhibition was determined as 15.7%.
Consider `CCNC(=O)c1cccc2nc(-c3cc(Br)nn3-c3ncccc3Cl)[nH]c12`, for which the inhibition was 24.9%.
As to `Cc1ccc(NC(=O)c2cccc3nc(-c4cc(Br)nn4-c4ncccc4Cl)[nH]c23)c(C)c1`, the inhibition was determined as 48.8%.
Still for that read-out and setting: to `CNC(=O)c1cccc2nc(-c3cc(Br)nn3-c3ncccc3Cl)[nH]c12` belongs 14.1%; to `COc1cccc(C)c1NC(=O)c1cccc2nc(-c3cc(Br)nn3-c3ncccc3Cl)[nH]c12`, 9.43%; to `Cc1ccccc1NC(=O)c1cccc2nc(-c3cc(Br)nn3-c3ncccc3Cl)[nH]c12`, 73.9%.
As for `O=C(NCc1ccc(C(F)(F)F)cc1)c1cccc2nc(-c3cc(Br)nn3-c3ncccc3Cl)[nH]c12`, the inhibition amounted to 32%.
In the case of `COc1ccccc1NC(=O)c1cccc2nc(-c3cc(Br)nn3-c3ncccc3Cl)[nH]c12`, the inhibition came to 60.5%.
Still for that read-out and setting: to `O=C(NCc1ccccn1)c1cccc2nc(-c3cc(Br)nn3-c3ncccc3Cl)[nH]c12` belongs 27.6%; to `CCCNC(=O)c1cccc2nc(-c3cc(Br)nn3-c3ncccc3Cl)oc12`, 26.6%; to `Cc1cccc(NC(=O)c2cccc3nc(-c4cc(Br)nn4-c4ncccc4Cl)[nH]c23)c1`, 18.9%.
For `COc1ccc(NC(=O)c2cccc3nc(-c4cc(Br)nn4-c4ncccc4Cl)[nH]c23)cc1`, the inhibition was 36.1%.
For `O=C(Nc1ccccc1I)c1cccc2nc(-c3cc(Br)nn3-c3ncccc3Cl)[nH]c12`, the inhibition turned out to be 24.8%.
Take `C/C(O)=C(\C#N)C(=O)Nc1ccc(C(F)(F)F)cc1`: the inhibition came out at 64%.
The same measure, in the same setting: next, `O=C(NCc1ccccc1)c1cccc2nc(-c3cc(Br)nn3-c3ncccc3Cl)[nH]c12`: 34.9%; `O=C(Nc1ccccc1)c1cccc2nc(-c3cc(Br)nn3-c3ncccc3Cl)[nH]c12`: 49.4%.
`O=C(Nc1ccc(C(F)(F)F)cc1)c1cccc2nc(-c3cc(Br)nn3-c3ncccc3Cl)[nH]c12`: the inhibition is 36.3%.
Turning to `COc1ccc(NC(=O)c2cccc3nc(-c4cc(Br)nn4-c4ncccc4Cl)[nH]c23)c(OC)c1`, the inhibition came out at 1.3%.
Regarding `COc1cccc(OC)c1NC(=O)c1cccc2nc(-c3cc(Br)nn3-c3ncccc3Cl)[nH]c12`, the inhibition was found to be 0%.
For `O=C(Nc1ccccc1Br)c1cccc2nc(-c3cc(Br)nn3-c3ncccc3Cl)[nH]c12`, the inhibition came out at 27.6%.
On to `Cc1ccc(CNC(=O)c2cccc3nc(-c4cc(Br)nn4-c4ncccc4Cl)[nH]c23)cc1`, for which the inhibition amounted to 22.7%.
With `O=C(NCc1c(F)ccc(F)c1F)c1cccc2nc(-c3cc(Br)nn3-c3ncccc3Cl)[nH]c12`, the inhibition is 43%.
On to `O=C(Nc1ccc(F)cc1F)c1cccc2nc(-c3cc(Br)nn3-c3ncccc3Cl)[nH]c12`, for which the inhibition was 26.9%.
Turning to `O=C(NCc1ccc(Cl)cc1)c1cccc2nc(-c3cc(Br)nn3-c3ncccc3Cl)[nH]c12`, the inhibition amounted to 44%.
Regarding `CCCNC(=O)c1cccc2nc(-c3cc(Br)nn3-c3ncccc3Cl)[nH]c12`, the inhibition came to 23.4%.
For the compound `O=C(Nc1ccc(F)c(F)c1F)c1cccc2nc(-c3cc(Br)nn3-c3ncccc3Cl)[nH]c12`, the inhibition was 31.9%.

The target is the same in the next assay. As to the kind of experiment: Potency index, ratio of A771726 IC50 to compound IC50 for human DHODH.
As for `COc1ccccc1NC(=O)c1cccc2nc(-c3cc(Br)nn3-c3ncccc3Cl)[nH]c12`, the Ratio IC50 worked out at 2.

Values taken from ChEMBL document CHEMBL3808318, “Design, synthesis and inhibitory activity against human dihydroorotate dehydrogenase (hDHODH) of 1,3-benzoazole derivatives bearing amide units” (Bioorg Med Chem Lett, 2016).
